Bridge positions count the residues as written; N and C are the ends. Square brackets hold non-standard residues; d marks the D form. Peptide text beside a SMILES is read from it. * marks the point of attachment. Bip = N[C@@H](Cc1ccc(-c2ccccc2)cc1)C(=O)O; Phe(3-Me) = Cc1cccc(C[C@H](N)C(=O)O)c1; Cha = N[C@@H](CC1CCCCC1)C(=O)O; Cit = NC(=O)NCCC[C@H](N)C(=O)O; Carboxymethyl = O=C(O)C*; Orn = NCCC[C@H](N)C(=O)O; Aun = NCCCCCCCCCCC(=O)O; Dab = NCC[C@H](N)C(=O)O; Dap = NC[C@H](N)C(=O)O; AEEA = NCCOCCOCC(=O)O

For orientation: IC50 means the concentration needed to halve the response being measured.

In the test the target is T1, PD-1/PD-L1 interaction (PE-labeled human PD-L1-Ig binding to Jurkat cell line over-expressing human PD-1) (Homo sapiens, UniProt Q15116).
T1 construct: expressed in transfected cells; host or cells: Jurkat
T1 sequence (Q15116 25-288): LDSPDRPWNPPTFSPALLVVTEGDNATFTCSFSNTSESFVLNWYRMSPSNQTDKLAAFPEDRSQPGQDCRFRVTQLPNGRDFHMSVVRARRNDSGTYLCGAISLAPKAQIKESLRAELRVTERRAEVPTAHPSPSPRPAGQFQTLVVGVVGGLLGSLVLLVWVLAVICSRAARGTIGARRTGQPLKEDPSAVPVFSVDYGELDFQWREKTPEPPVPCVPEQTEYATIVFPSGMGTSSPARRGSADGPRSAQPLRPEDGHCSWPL
Description: Jurkat-PD-1 Cell Binding High-Content Screening Assay (CBA). The format is cell-based. The following applies: Jurkat cell line over-expressing human PD-1; PE-labeled PD-L1-Ig 20 nM final; read-out: Jurkat hPD1-PDL1 IC50. A digest of the protocol: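 Jurkat-hPD-1 cells, DMEM/10% FCS; cpd 2 h 37° C; PE-PD-L1-Ig 20 nM final, 1 h; 4% PFA fix + Hoechst 33342, 3× dPBS wash; high-content imaging read-out.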
In the case of `CC[C@H](C)[C@@H]1NC(=O)[C@H](Cc2ccc(-c3ccccc3)cc2)NC(=O)[C@H](C(C)C)NC(=O)[C@H](Cc2cccc(C)c2)NC(=O)[C@H](CC(=O)O)NC(=O)[C@H](Cc2ccc(OCC(=O)O)cc2)NC(=O)[C@H](CN)NC(=O)CSC[C@@H](C(=O)N[C@@H](CCCCN)C(=O)NCCOCCOCC(=O)NCCCCCCCCCCC(=O)O)NC(=O)[C@H](CN)NC(=O)[C@H](C(C)C)NC(=O)[C@H](CC2CCCCC2)NC(=O)[C@H](CCN)NC(=O)[C@@H](CC(C)C)NC(=O)[C@H](CCCN)NC1=O` [Compound 2650] ({CH2CO}-[Dap]Y(Carboxymethyl)D[Phe(3-Me)]V[Bip]I[Orn][dL][Dab][Cha]V[Dap]CK[AEEA][Aun]-OH; thioether N-14), the 50% inhibitory concentration (IC50) was determined as 11.5 nM.

In the case of `Cc1cccc(C[C@@H]2NC(=O)[C@H](CC(=O)O)NC(=O)[C@H](Cc3ccc(OCC(=O)O)cc3)NC(=O)[C@H](CN)NC(=O)CSC[C@@H](C(=O)N[C@@H](CCCCN)C(=O)NCCOCCOCC(=O)NCCCCCCCCCCC(=O)O)NC(=O)[C@H](CCCN)NC(=O)[C@H](C(C)C)NC(=O)[C@H](CC3CCCCC3)NC(=O)[C@H](CCN)NC(=O)[C@@H](CC(C)C)NC(=O)[C@H](CCCN)NC(=O)[C@H](CCCNC(N)=O)NC(=O)[C@H](Cc3ccc(-c4ccccc4)cc3)NC(=O)[C@H](C(C)C)NC2=O)c1` [Compound 2651] ({CH2CO}-[Dap]Y(Carboxymethyl)D[Phe(3-Me)]V[Bip][Cit][Orn][dL][Dab][Cha]V[Orn]CK[AEEA][Aun]-OH; thioether N-14), the concentration for half-maximal inhibition (IC50) was determined as 9.7 nM. Then `CC[C@H](C)[C@@H]1NC(=O)[C@H](Cc2ccc(-c3ccccc3)cc2)NC(=O)[C@H](C(C)C)NC(=O)[C@H](Cc2cccc(C)c2)NC(=O)[C@H](CC(=O)O)NC(=O)[C@H](Cc2ccc(OCC(=O)O)cc2)NC(=O)[C@H](CN)NC(=O)CSC[C@@H](C(=O)N[C@@H](CCCCN)C(=O)NCCOCCOCC(=O)NCCCCCCCCCCC(=O)O)NC(=O)[C@H](CCCN)NC(=O)[C@H](C(C)C)NC(=O)[C@H](CC2CCCCC2)NC(=O)[C@H](CCN)NC(=O)[C@@H](CC(C)C)NC(=O)[C@H](CCCN)NC1=O` [Compound 2652] ({CH2CO}-[Dap]Y(Carboxymethyl)D[Phe(3-Me)]V[Bip]I[Orn][dL][Dab][Cha]V[Orn]CK[AEEA][Aun]-OH; thioether N-14), with 6.1 nM; and `Cc1cccc(C[C@@H]2NC(=O)[C@H](CC(=O)O)NC(=O)[C@H](Cc3ccc(OCC(=O)O)cc3)NC(=O)[C@H](CN)NC(=O)CSC[C@@H](C(=O)N[C@@H](CCCCN)C(=O)NCCOCCOCC(=O)NCCCCCCCCCCC(=O)O)NC(=O)[C@H](CCCNC(=N)N)NC(=O)[C@H](C(C)C)NC(=O)[C@H](CC3CCCCC3)NC(=O)[C@H](CCN)NC(=O)[C@@H](CC(C)C)NC(=O)[C@H](CCCN)NC(=O)[C@H](CCCNC(N)=O)NC(=O)[C@H](Cc3ccc(-c4ccccc4)cc3)NC(=O)[C@H](C(C)C)NC2=O)c1` [Compound 2653] ({CH2CO}-[Dap]Y(Carboxymethyl)D[Phe(3-Me)]V[Bip][Cit][Orn][dL][Dab][Cha]VRCK[AEEA][Aun]-OH; thioether N-14), with 11.2 nM; and `CC[C@H](C)[C@@H]1NC(=O)[C@H](Cc2ccc(-c3ccccc3)cc2)NC(=O)[C@H](C(C)C)NC(=O)[C@H](Cc2cccc(C)c2)NC(=O)[C@H](CC(=O)O)NC(=O)[C@H](Cc2ccc(OCC(=O)O)cc2)NC(=O)[C@H](CN)NC(=O)CSC[C@@H](C(=O)N[C@@H](CCCCN)C(=O)NCCOCCOCC(=O)NCCCCCCCCCCC(=O)O)NC(=O)[C@H](CCCNC(=N)N)NC(=O)[C@H](C(C)C)NC(=O)[C@H](CC2CCCCC2)NC(=O)[C@H](CCN)NC(=O)[C@@H](CC(C)C)NC(=O)[C@H](CCCN)NC1=O` [Compound 2654] ({CH2CO}-[Dap]Y(Carboxymethyl)D[Phe(3-Me)]V[Bip]I[Orn][dL][Dab][Cha]VRCK[AEEA][Aun]-OH; thioether N-14), with 5.2 nM. With `CC(C)C[C@H]1NC(=O)[C@H](CCCN)NC(=O)[C@H](CCCNC(N)=O)NC(=O)[C@H](Cc2ccc(-c3ccccc3)cc2)NC(=O)[C@H](C(C)C)NC(=O)[C@H](Cc2c[nH]c3ccccc23)NC(=O)[C@H](CC(=O)O)NC(=O)[C@H](Cc2ccc(OCC(=O)O)cc2)NC(=O)[C@H](Cc2ccc(OCC(=O)O)cc2)NC(=O)CSC[C@@H](C(=O)NCCOCCOCC(=O)N[C@@H](CCN)C(=O)NCCCCCCCCCCC(=O)O)NC(=O)[C@H](CCCNC(=N)N)NC(=O)[C@H](C(C)C)NC(=O)[C@H](CC2CCCCC2)NC(=O)[C@H](CCN)NC1=O` [Compound 2655] ({CH2CO}-Y(Carboxymethyl)Y(Carboxymethyl)DWV[Bip][Cit][Orn][dL][Dab][Cha]VRC[AEEA][Dab][Aun]-OH; thioether N-14), the 50% inhibitory concentration (IC50) was 9.4 nM. Then `CC[C@H](C)[C@@H]1NC(=O)[C@H](Cc2ccc(-c3ccccc3)cc2)NC(=O)[C@H](C(C)C)NC(=O)[C@H](Cc2c[nH]c3ccccc23)NC(=O)[C@H](CC(=O)O)NC(=O)[C@H](Cc2ccc(OCC(=O)O)cc2)NC(=O)[C@H](Cc2ccc(OCC(=O)O)cc2)NC(=O)CSC[C@@H](C(=O)NCCOCCOCC(=O)N[C@@H](CCN)C(=O)NCCCCCCCCCCC(=O)O)NC(=O)[C@H](CCCNC(=N)N)NC(=O)[C@H](C(C)C)NC(=O)[C@H](CC2CCCCC2)NC(=O)[C@H](CCN)NC(=O)[C@@H](CC(C)C)NC(=O)[C@H](CCCN)NC1=O` [Compound 2656] ({CH2CO}-Y(Carboxymethyl)Y(Carboxymethyl)DWV[Bip]I[Orn][dL][Dab][Cha]VRC[AEEA][Dab][Aun]-OH; thioether N-14), with 8.2 nM; and `CC(C)C[C@H]1NC(=O)[C@H](CCCN)NC(=O)[C@H](CCC(=O)O)NC(=O)[C@H](Cc2ccc(-c3ccccc3)cc2)NC(=O)[C@H](C(C)C)NC(=O)[C@H](Cc2c[nH]c3ccccc23)NC(=O)[C@H](CC(=O)O)NC(=O)[C@H](Cc2ccc(OCC(=O)O)cc2)NC(=O)[C@H](CN)NC(=O)CSC[C@@H](C(=O)NCCOCCOCC(=O)N[C@@H](CCN)C(=O)NCCCCCCCCCCC(=O)O)NC(=O)[C@H](CCCCN)NC(=O)[C@H](C(C)C)NC(=O)[C@H](CC2CCCCC2)NC(=O)[C@H](CCN)NC1=O` [Compound 2657] ({CH2CO}-[Dap]Y(Carboxymethyl)DWV[Bip]E[Orn][dL][Dab][Cha]VKC[AEEA][Dab][Aun]-OH; thioether N-14), with 14.4 nM. Then `Cc1cccc(C[C@@H]2NC(=O)[C@H](CC(=O)O)NC(=O)[C@H](Cc3ccc(OCC(=O)O)cc3)NC(=O)[C@H](CN)NC(=O)CSC[C@@H](C(=O)NCCOCCOCC(=O)N[C@@H](CCN)C(=O)NCCCCCCCCCCC(=O)O)NC(=O)[C@H](CN)NC(=O)[C@H](C(C)C)NC(=O)[C@H](CC3CCCCC3)NC(=O)[C@H](CCN)NC(=O)[C@@H](CC(C)C)NC(=O)[C@H](CCCN)NC(=O)[C@H](CCC(=O)O)NC(=O)[C@H](Cc3ccc(-c4ccccc4)cc3)NC(=O)[C@H](C(C)C)NC2=O)c1` [Compound 2658] ({CH2CO}-[Dap]Y(Carboxymethyl)D[Phe(3-Me)]V[Bip]E[Orn][dL][Dab][Cha]V[Dap]C[AEEA][Dab][Aun]-OH; thioether N-14), with 18 nM.
